Test results published in DBAASP.
Converted amounts (≈) assume the structure as drawn. “And” between values parts separate entries of the source, which are not always exact repeats. Equal values may be shown once.

Experiments:
Experiment in all cases: ≥ marks a high value that may be exact or a test limit, other limits are often not marked, values filed in µg/mL are converted to µM
[1] = tested on: Streptococcus pyogenes ATCC 21547
[2] = tested on: Staphylococcus aureus ATCC 700699
[3] = tested on: Aeromonas hydrophila Rt-6
[4] = tested on: Pseudomonas aeruginosa ATCC BAA-427
[5] = tested on: Schizosaccharomyces pombe
[6] = tested on: Escherichia coli D21
[7] = tested on: Staphylococcus capitis 1
[8] = tested on: Staphylococcus aureus ATCC 43300
[9] = tested on: Escherichia coli ATCC 9637
[10] = tested on: Staphylococcus aureus ATCC 700698
[11] = tested on: Acinetobacter baumannii ATCC BAA-747
[12] = tested on: Staphylococcus epidermidis ATCC 12228
[13] = tested on: Enterococcus faecalis ATCC 29212
[14] = tested on: Candida parapsilosis ATCC 22019
[15] = tested on: Pseudomonas aeruginosa ATCC 15692
[16] = tested on: Staphylococcus aureus ATCC 33592
[17] = tested on: Bacillus subtilis ATCC 6633
[18] = tested on: Pseudomonas aeruginosa ATCC 27853
[19] = tested on: Bacillus megaterium Bm11
[20] = tested on: Staphylococcus aureus ATCC BAA-44
[21] = tested on: Staphylococcus aureus ATCC 29213
[22] = tested on: Pseudomonas syringae pv. tabaci 1918NCPPB
[23] = tested on: Acinetobacter junii RT-4
[24] = tested on: Klebsiella pneumoniae ATCC 27736
[25] = tested on: Staphylococcus aureus Cowan 1
[26] = tested on: Candida albicans ATCC 10231
[27] = tested on: Pseudomonas aeruginosa
[28] = tested on: Yersinia pseudotuberculosis YPIII
[29] = tested on: Enterococcus faecium ATCC 700221
[30] = tested on: Cryptococcus neoformans
[31] = tested on: Pseudomonas aeruginosa ATCC 27583
[32] = tested on: Saccharomyces cerevisiae
[33] = tested on: Klebsiella pneumoniae ATCC 700603
[34] = tested on: Acinetobacter baumannii ATCC 19606
[35] = tested on: Klebsiella pneumoniae Oschner KP-1
[36] = tested on: Pseudomonas aeruginosa BB2013-100
[37] = tested on: Escherichia coli ATCC 25922
[38] = tested on: Klebsiella pneumoniae BB2009-209
[39] = tested on: Pseudomonas aeruginosa J4228
[40] = tested on: Acinetobacter baumannii Josh 230
[41] = tested on: Escherichia coli ARLG-1012
[42] = tested on: Enterobacter cloacae St. L P23
[43] = tested on: Klebsiella pneumoniae J3702
[44] = tested on: Escherichia coli BW25113
[45] = tested on: Enterobacter cloacae BB2012-181
[46] = tested on: Acinetobacter baumannii Josh 28
[47] = tested on: Enterobacter asburiae St. L P23
[48] = tested on: Escherichia coli BB2013-30
[49] = tested on: Enterobacter cloacae BB2013-32
[50] = tested on: Escherichia coli JW55034
[51] = tested on: Klebsiella aerogenes St. L P63

CC[C@H](C)[C@H](NC(=O)[C@H](CCCNC(=N)N)NC(=O)CNC(=O)[C@H](CC(C)C)NC(=O)[C@H](Cc1ccccc1)NC(=O)[C@H](CCCCN)NC(=O)[C@H](CO)NC(=O)[C@H](Cc1ccccc1)NC(=O)[C@H](Cc1c[nH]c2ccccc12)NC(=O)[C@H](CCC(N)=O)NC(=O)[C@@H](NC(=O)[C@@H](N)Cc1ccccc1)C(C)C)C(=O)N[C@@H](CC(C)C)C(N)=O [FVQWFSKFLGRIL]
MIC [1]: 6 µM (≈ 9.84 µg/mL) | MIC [2]: 3.6 µM (≈ 5.9 µg/mL) | MIC [3]: ≥ 40 µM | MIC [4]: 7.6 µM (≈ 12.5 µg/mL) | MIC [5]: 6 µM (≈ 9.84 µg/mL) | MIC [6]: 11 µM (≈ 18 µg/mL) | MIC [7]: 1.5 µM (≈ 2.46 µg/mL) | MIC [8]: 4 µM (≈ 6.56 µg/mL) | MIC [9]: 12.5 µM (≈ 20.5 µg/mL) | MIC [10]: 3.6 µM (≈ 5.9 µg/mL) | MIC [11]: 4 µM (≈ 6.56 µg/mL) | MIC [12]: 1.94 µM (≈ 3.18 µg/mL) | MIC [13]: 6 µM (≈ 9.84 µg/mL) | MIC [14]: 12 µM (≈ 19.7 µg/mL) | MIC [15]: 21.9 µM (≈ 35.9 µg/mL) | MIC [16]: 3.6 µM (≈ 5.9 µg/mL) | MIC [17]: 7.6 µM (≈ 12.5 µg/mL) | MIC [18]: > 48 µM | MIC [19]: 1.94 µM (≈ 3.18 µg/mL) | MIC [20]: 3.6 µM (≈ 5.9 µg/mL) | MIC [21]: 3.6 µM (≈ 5.9 µg/mL) | MIC [22]: 6 µM (≈ 9.84 µg/mL) | MIC [23]: 3 µM (≈ 4.92 µg/mL) | MIC [24]: 11.4 µM (≈ 18.7 µg/mL) | MIC [25]: 2.74 µM (≈ 4.49 µg/mL) | MIC [26]: 12 µM (≈ 19.7 µg/mL) | MIC [27]: 64 µM (≈ 105 µg/mL) | MIC [28]: 3 µM (≈ 4.92 µg/mL) | MIC [29]: 8 µM (≈ 13.1 µg/mL) | MIC [30]: 12 µM (≈ 19.7 µg/mL) | MIC [31]: ≥ 32 µM | MIC [32]: 6 µM (≈ 9.84 µg/mL) | MIC [33]: 16 µM (≈ 26.2 µg/mL) | MIC [34]: 6 µM (≈ 9.84 µg/mL)

CC[C@H](C)[C@H](NC(=O)CN)C(=O)N[C@@H](CCCCN)C(=O)N[C@H](C(=O)N[C@@H](CCCN=C(N)N)C(=O)N[C@@H](CCCCN)C(=O)N[C@@H](CC(C)C)C(=O)N[C@@H](Cc1ccccc1)C(=O)N[C@@H](CCCCN)C(=O)N[C@@H](CCCCN)C(=O)N[C@@H](CC(C)C)C(=O)N[C@@H](CC(C)C)C(=O)N[C@@H](CCCN=C(N)N)C(N)=O)[C@@H](C)CC [GIKIRKLFKKLLR]
MIC [35]: 19.8 µM (≈ 32 µg/mL) | MIC [36]: 19.8 µM (≈ 32 µg/mL) | MIC [37]: 2.74 µM and 5.48 µM | MIC [38]: 19.8 µM (≈ 32 µg/mL) | MIC [39]: 4.96 µM (≈ 8 µg/mL) | MIC [40]: 9.92 µM (≈ 16 µg/mL) | MIC [41]: 4.96 µM (≈ 8 µg/mL) | MIC [42]: 19.8 µM (≈ 32 µg/mL) | MIC [18]: 2.48 µM (≈ 4 µg/mL) | MIC [43]: 19.8 µM (≈ 32 µg/mL) | MIC [44]: 4.96 µM (≈ 8 µg/mL) | MIC [45]: 19.8 µM (≈ 32 µg/mL) | MIC [46]: 2.48 µM (≈ 4 µg/mL) | MIC [47]: 19.8 µM (≈ 32 µg/mL) | MIC [48]: 9.92 µM (≈ 16 µg/mL) | MIC [49]: 19.8 µM (≈ 32 µg/mL) | MIC [50]: 4.96 µM (≈ 8 µg/mL) | MIC [51]: 19.8 µM (≈ 32 µg/mL)
